Assay results from patent US9533977B2, “Oxazolidinone derivative as CETP inhibitor, its preparation method, and pharmaceutical composition comprising the same” (DONG-A ST CO., LTD., priority 2013, dated 2017).

Target: T1, CETP (Homo sapiens, UniProt P11597)
T1 construct: from tissue; host or cells: human plasma from healthy men
T1 sequence (P11597 18-493): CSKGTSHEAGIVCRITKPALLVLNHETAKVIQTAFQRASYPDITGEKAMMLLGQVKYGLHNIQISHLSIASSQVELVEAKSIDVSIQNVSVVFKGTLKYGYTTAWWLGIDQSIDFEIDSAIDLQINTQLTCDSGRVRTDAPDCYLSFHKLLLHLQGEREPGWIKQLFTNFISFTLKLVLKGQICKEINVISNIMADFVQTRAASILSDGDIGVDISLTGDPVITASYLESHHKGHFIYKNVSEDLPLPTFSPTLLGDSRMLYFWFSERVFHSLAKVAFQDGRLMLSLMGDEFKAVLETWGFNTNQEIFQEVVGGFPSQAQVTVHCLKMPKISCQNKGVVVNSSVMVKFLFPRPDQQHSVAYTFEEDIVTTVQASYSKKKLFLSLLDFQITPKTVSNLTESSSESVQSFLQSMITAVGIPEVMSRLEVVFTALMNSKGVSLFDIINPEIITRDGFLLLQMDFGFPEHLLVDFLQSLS
Assay: Inhibitory activity against CETP in human plasma (Roar CETP activity kit, fluorescence)
Format: biochemical
Details: plasma from healthy men diluted 1:10 in assay buffer, 37° C., 3 hrs, fluorescence 465/535 nm; read-out: IC50, Inhibition of CETP Activity in Human Plasma
Protocol: A CETP activity kit (#RB-CETP) was purchased from Roar […], Inc. A donor and an acceptor (each, 4 ul), a 10× assay buffer (177 ul), and each of dilutions of test compounds in dimethylsulfoxide (DMSO, Sigma-Aldrich) (0.01 nM˜10000 nM) were added to each well of black round-bottom 96-well plates (Corning #3792). Plasma samples from healthy men were diluted in the assay buffer (1:10=plasma:assay buffer), and added to each well. The plates were sealed with a sealing film (Sigma-Aldrich, #Z369659), and incubated in a 37° C. incubator microplate shaker (#SLST-3, Seolin Bio) for 3 hrs. After removal of the sealing film, fluorescence was read on Spectra Max Gemini EM (Molecular devices) with an excitation wavelength of 465 nm and an emission wavelength of 535 nm. Measurements were calculated according to the following formula. Calculated value=(Fluorescence Intensity with both compound and plasma−Fluorescence Intensity with compound but without plasma)/(Fluorescence Intensity with plasma but without compound−Fluorescence Intensity with neither compound nor plasma)
From the calculated value, a sigmoidal curve (y=start+(end-start)x^n/k^n+x^n) was drawn using Origin Software (OriginLab Corporation, ver. 8.0724) to obtain IC50 values.

| IC50 | SMILES |
| --- | --- |
| 112 nM | C[C@H]1[C@@H](c2cc(C(F)(F)F)cc(C(F)(F)F)c2)OC(=O)N1Cc1cc(C(F)(F)F)cnc1N(C)C1CCOC1 (stereo partly drawn) [Example 1, (4S,5R)-5-[3,5-bis(trifluoromethyl)phenyl]-4-methyl-3-[(2-(methyl(tetrahydrofuran-3-yl)amino)-5-(trifluoromethyl)pyridin-3-yl)methyl]-oxazolidin-2-one] |
| 143 nM | CCN(c1ncc(C(F)(F)F)cc1CN1C(=O)O[C@H](c2cc(C(F)(F)F)cc(C(F)(F)F)c2)[C@@H]1C)C1CCOC1 (stereo partly drawn) [Example 2, (4S,5R)-5-[3,5-bis(trifluoromethyl)phenyl]-4-methyl-3-{(2-[ethyl(tetrahydrofuran-3-yl)amino]-5-(trifluoromethyl)pyridin-3-yl)methyl}-oxazolidin-2-one] |
| 6.3 nM | CCN(c1ncc(C(F)(F)F)cc1CN1C(=O)O[C@H](c2cc(C(F)(F)F)cc(C(F)(F)F)c2)[C@@H]1C)C1CCOCC1 [Example 7, (4S,5R)-5-[3,5-bis(trifluoromethyl)phenyl]-4-methyl-3-({[2-(ethyl)(tetrahydro-2H-pyran-4-yl)amino]-5-(trifluoromethyl)pyridin-3-yl}methyl)-oxazolidin-2-one] |
| 14 nM | CCCN(c1ncc(C(F)(F)F)cc1CN1C(=O)O[C@H](c2cc(C(F)(F)F)cc(C(F)(F)F)c2)[C@@H]1C)C1CCOCC1 [Example 8, (4S,5R)-5-[3,5-bis(trifluoromethyl)phenyl]-4-methyl-3-({[2-(propyl)(tetrahydro-2H-pyran-4-yl)amino]-5-(trifluoromethyl)pyridin-3-yl}methyl)-oxazolidin-2-one] |
| 68 nM | CCCCN(c1ncc(C(F)(F)F)cc1CN1C(=O)O[C@H](c2cc(C(F)(F)F)cc(C(F)(F)F)c2)[C@@H]1C)C1CCOCC1 [Example 9, (4S,5R)-5-[3,5-bis(trifluoromethyl)phenyl]-4-methyl-3-({[2-(butyl)(tetrahydro-2H-pyran-4-yl)amino]-5-(trifluoromethyl)pyridin-3-yl}methyl)-oxazolidin-2-one] |
| 60 nM | C[C@H]1[C@@H](c2cc(C(F)(F)F)cc(C(F)(F)F)c2)OC(=O)N1Cc1cc(C(F)(F)F)cnc1N(C1CCOCC1)C1CC1 [Example 10] |
| 317 nM | C[C@H]1[C@@H](c2cc(C(F)(F)F)cc(C(F)(F)F)c2)OC(=O)N1Cc1cc(C(F)(F)F)cnc1N(C1CCC1)C1CCOCC1 [Example 11, (4S,5R)-5-[3,5-bis(trifluoromethyl)phenyl]-4-methyl-3-({[2-(cyclobutyl)(tetrahydro-2H-pyran-4-yl)amino]-5-(trifluoro)methylpyridin-3-yl}methyl)-oxazolidin-2-one] |
| 98 nM | CCN(c1ncccc1CN1C(=O)O[C@H](c2cc(C(F)(F)F)cc(C(F)(F)F)c2)[C@@H]1C)C1CCOCC1 [Example 14, (4S,5R)-5-[3,5-Bis(trifluoromethyl)phenyl]-4-methyl-3-({[2-ethyl(tetrahydro-2H-pyran-4-yl)amino]-pyridin-3-yl}methyl)-oxazolidin-2-one] |
| 10 nM | CCN(c1ncc(C(F)(F)F)cc1CN1C(=O)O[C@H](c2cc(C(F)(F)F)cc(C(F)(F)F)c2)[C@@H]1C)C1CCCOC1 (stereo partly drawn) [Example 15, (4S,5R)-5-[3,5-bis(trifluoromethyl)phenyl]-4-methyl-3-({[2-ethyl(tetrahydro-2H-pyran-3-yl)amino]-5-(trifluoromethyl)pyridin-3-yl}methyl)-oxazolidin-2-one] |
| 75 nM | CCN(c1ncc(F)cc1CN1C(=O)O[C@H](c2cc(C(F)(F)F)cc(C(F)(F)F)c2)[C@@H]1C)C1CCOCC1 [Example 16, (4S,5R)-5-[3,5-Bis(trifluoromethyl)phenyl]-4-methyl-3-({2-[ethyl(tetrahydro-2H-pyran-4-yl)amino]-5-fluoropyridin-3-yl}methyl)-oxazolidin-2-one] |
| 379 nM | C[C@H]1[C@@H](c2cc(C(F)(F)F)cc(C(F)(F)F)c2)OC(=O)N1Cc1cc(C(F)(F)F)cnc1N(CC(=O)OC(C)(C)C)C1CCOCC1 [Example 17, t-butyl 2-([3-({(4S,5R)-5-[3,5-bis(trifluoromethyl)phenyl]-4-methyl-2-oxo-oxazolidin-3-yl}methyl)-5-(trifluoromethyl)pyridin-2-yl]-(tetrahydro-2H-pyran-4-yl)amino)-acetate] |
| 91 nM | C[C@H]1[C@@H](c2cc(C(F)(F)F)cc(C(F)(F)F)c2)OC(=O)N1Cc1cc(C(F)(F)F)cnc1N(CCO)C1CCOCC1 [Example 18, (4S,5R)-5-[3,5-Bis(trifluoromethyl)phenyl]-4-methyl-3-({[2-(hydroxyethyl)(tetrahydro-2H-pyran-4-yl)amino]-5-(trifluoromethyl)pyridin-3-yl}methyl)-oxazolidin-2-one] |
| 59 nM | C[C@H]1[C@@H](c2cc(C(F)(F)F)cc(C(F)(F)F)c2)OC(=O)N1Cc1cc(C(F)(F)F)cnc1N(C)C1CCCOCC1 (stereo partly drawn) [Example 20, (4S,5R)-5-[3,5-bis(trifluoromethyl)phenyl]-4-methyl-3-({[2-(methyl)(oxepen-4-yl)amino]-5-(trifluoromethyl)pyridin-3-yl}methyl)-oxazolidin-2-one] |
| 114 nM | CCN(c1ncc(C(F)(F)F)cc1CN1C(=O)O[C@H](c2cc(C(F)(F)F)cc(C(F)(F)F)c2)[C@@H]1C)C1CCC2(CC1)OCCO2 [Example 21, (4S,5R)-5-[3,5-bis(trifluoromethyl)phenyl]-4-methyl-3-({[2-(ethyl)(1,4-dioxaspiro[4.5]decan-8-yl)amino]-5-trifluoromethylpyridin-3-yl}methyl)-oxazolidin-2-one] |
| 10 nM | CCN(c1ncc(C(F)(F)F)cc1CN1C(=O)O[C@H](c2cc(C(F)(F)F)cc(C(F)(F)F)c2)[C@@H]1C)C1CCC(=O)CC1 [Example 22, (4S,5R)-5-[3,5-bis(trifluoromethyl)phenyl]-4-methyl-3-({[2-(ethyl)(4-oxocyclohexyl)amino]-5-(trifluoromethyl)pyridin-3-yl}methyl)-oxazolidin-2-one] |
| 44.4 nM | CCNC1CCC(N(CC)c2ncc(C(F)(F)F)cc2CN2C(=O)O[C@H](c3cc(C(F)(F)F)cc(C(F)(F)F)c3)[C@@H]2C)CC1 (stereo partly drawn) [Example 23, (4S,5R)-5-[3,5-bis(trifluoromethyl)phenyl]-4-methyl-3-({[2-(ethyl)(4-ethylaminocyclohexyl)amino]-5-(trifluoromethyl)pyridin-3-yl}methyl)-oxazolidin-2-one] |
| 185 nM | CCN(c1ncc(C(F)(F)F)cc1CN1C(=O)O[C@H](c2cc(C(F)(F)F)cc(C(F)(F)F)c2)[C@@H]1C)C1CCC(CC(=O)OC)CC1 (stereo partly drawn) [Example 24, methyl 2-(4-{[3-({(4S,5R)-5-[3,5-bis(trifluoromethyl)phenyl]-4-methyl-2-oxo-oxazolidin-3-yl}methyl)-5-(trifluoromethyl)pyridin-2-yl](ethyl)amino}cyclohexyl)acetate] |
| 108 nM | CCN(c1ncc(C(F)(F)F)cc1CN1C(=O)O[C@H](c2cc(C(F)(F)F)cc(C(F)(F)F)c2)[C@@H]1C)C1CCSCC1 [Example 25, (4S,5R)-5-[3,5-bis(trifluoromethyl)phenyl]-4-methyl-3-({[2-(ethyl)(tetrahydro-2H-thiopyran-4-yl)amino]-5-(trifluoromethyl)pyridin-3-yl}methyl)-oxazolidin-2-one] |
| 100 nM | CCN(c1ncc(C(F)(F)F)cc1CN1C(=O)O[C@H](c2cc(C(F)(F)F)cc(C(F)(F)F)c2)[C@@H]1C)C1CC[S+]([O-])CC1 (stereo partly drawn) [Example 26, (4S,5R)-5-[3,5-bis(trifluoromethyl)phenyl]-4-methyl-3-({[2-(ethyl)(1-oxidotetrahydro-2H-thiopyran-4-yl)amino]-5-(trifluoromethyl)pyridin-3-yl}methyl)-oxazolidin-2-one] |
| 430 nM | CCN(c1ncc(C(F)(F)F)cc1CN1C(=O)O[C@H](c2cc(C(F)(F)F)cc(C(F)(F)F)c2)[C@@H]1C)C1CCN(C(=O)OC(C)(C)C)CC1 [Example 27, t-butyl 4-{[3-({(4S,5R)-5-[3,5-bis(trifluoromethyl)phenyl]-4-methyl-2-oxo-oxazolidin-3-yl}methyl)-5-(trifluoromethyl)pyridin-2-yl](ethyl)amino}piperidine-1-carboxylate] |
| 540 nM | CCN(c1ncc(C(F)(F)F)cc1CN1C(=O)O[C@H](c2cc(C(F)(F)F)cc(C(F)(F)F)c2)[C@@H]1C)C1CCN(C)CC1 [Example 29, (4S,5R)-5-[3,5-bis(trifluoromethyl)phenyl]-4-methyl-3-({[2-(ethyl)(1-methylpiperidin-4-yl)amino]-5-(trifluoromethyl)pyridin-3-yl}methyl)-oxazolidin-2-one] |
| 108 nM | CCCN1CCC(N(CC)c2ncc(C(F)(F)F)cc2CN2C(=O)O[C@H](c3cc(C(F)(F)F)cc(C(F)(F)F)c3)[C@@H]2C)CC1 [Example 31] |
